In patent publication US9334279B2, “Hepatitis C virus inhibitors” (BRISTOL-MYERS SQUIBB COMPANY, priority 2012, dated 2016) one finds EC50 data, which are given here for eleven compounds.

One assay concerns HCV GT1a(H77) replicon. The assay can be described thus: HCV replicon luciferase reporter assay, genotype 1a. To be noted: Hepatitis C virus, 72 h, HUH-7 cells, Renilla luciferase, 3 days incubation, read-out: LE_1a (EC50, range). It is filed as cell-based, HCV genotype 1a. An outline of the steps:
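Huh-7 cells stably carried a GT1a(H77) Renilla luciferase replicon with NS3 P1496L and NS5A S2204I adaptive mutations. Luminescence was read after 2 h with 7.5 μM EnduRen, and EC50 came from a four-parameter logistic fit; CC50 came from multiplexed Cell Titer-Blue (8 h).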
(In general: A replicon is a self-replicating genome or part of one, used to study replication in cells.)

The next assay relates to HCV GT1b(Con1) replicon. Kind of assay: HCV replicon luciferase reporter assay, genotype 1b. Format: cell-based, HCV genotype 1b. To be noted: Hepatitis C virus, 72 h, HUH-7 cells, Renilla luciferase, 3 days incubation, read-out: LE_1b (EC50, range). An outline of the steps: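 HUH-7 cells stably carrying a Con1 GT1b replicon with Renilla luciferase and Ser1179Ile adaptive mutation; 3.0×10^3 cells/well, DMEM 4% FCS, 0.5% DMSO, twenty-point 3-fold titration, 3 days 37 °C. Luminescence 2 h after 7.5 μM EnduRen; EC50 by four-parameter logistic fit. CC50 from multiplexed Cell Titer-Blue fluorescence (8 h).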

As for `C[C@@H]1CC/C=C\[C@@H]2C[C@@]2(C(=O)NS(=O)(=O)C2(C)CC2)NC(=O)[C@@H]2C[C@@H](Oc3ccnc(-c4nccs4)c3)CN2C(=O)[C@@H](NC(=O)OC(C)(C)C(F)(F)F)[C@H](C)C1` [Compound 1025, 1,1,1-trifluoro-2-methylpropan-2-yl ((2R,6S,7R,9R,13aS,14aR,16aS,Z)-7,9-dimethyl-14a-(((1-methylcyclopropyl)sulfonyl)carbamoyl)-5,16-dioxo-2-((2-(thiazol-2-yl)pyridin-4-yl)oxy)-1,2,3,5,6,7,8,9,10,11,13a,14,14a,15,16,16a-hexadecahydrocyclopropa[e]pyrrolo[1,2-a][1,4]diazacyclopentadecin-6-yl)carbamate], the figures for the 50% effective concentration (EC50) in the assay on HCV GT1a(H77) replicon and with HCV GT1b(Con1) replicon were 1.01 to 5 nM and 0.51 to 1 nM, respectively.

Consider `C[C@@H]1CC/C=C\[C@@H]2C[C@@]2(C(=O)NS(=O)(=O)C2CC2)NC(=O)[C@@H]2C[C@@H](Oc3cc(Cl)ccn3)CN2C(=O)[C@@H](NC(=O)OC(C)(C)C(F)(F)F)[C@H](C)C1` [Compound 1026, 1,1,1-trifluoro-2-methylpropan-2-yl ((2R,6S,7R,9R,13aS,14aR,16aS,Z)-2-((4-chloropyridin-2-yl)oxy)-14a-((cyclopropylsulfonyl)carbamoyl)-7,9-dimethyl-5,16-dioxo-1,2,3,5,6,7,8,9,10,11,13a,14,14a,15,16,16a-hexadecahydrocyclopropa[e]pyrrolo[1,2-a][1,4]diazacyclopentadecin-6-yl)carbamate], for which the EC50 in the assay on HCV GT1a(H77) replicon and with HCV GT1b(Con1) replicon was 5.01 to 35 nM in each case.

Take `CC(C)Oc1ccc(-c2cc(Cl)cc(O[C@@H]3C[C@H]4C(=O)N[C@]5(C(=O)NS(=O)(=O)C6(C)CC6)C[C@H]5/C=C\CC[C@@H](C)C[C@@H](C)[C@H](NC(=O)OC(C)(C)C(F)(F)F)C(=O)N4C3)n2)cc1` [Compound 1027, 1,1,1-trifluoro-2-methylpropan-2-yl ((2R,6S,7R,9R,13aS,14aR,16aS,Z)-2-((4-chloro-6-(4-isopropoxyphenyl)pyridin-2-yl)oxy)-7,9-dimethyl-14a-(((1-methylcyclopropyl)sulfonyl)carbamoyl)-5,16-dioxo-1,2,3,5,6,7,8,9,10,11,13a,14,14a,15,16,16a-hexadecahydrocyclopropa[e]pyrrolo[1,2-a][1,4]diazacyclopentadecin-6-yl)carbamate]: the concentration giving a half-maximal response (EC50) in the assay on HCV GT1a(H77) replicon and with HCV GT1b(Con1) replicon was 1.01 to 5 nM in each case.

With `CC(C)Oc1ccc(-c2cc(Cl)cc(O[C@@H]3C[C@H]4C(=O)N[C@]5(C(=O)NS(=O)(=O)C6(C)CC6)C[C@H]5/C=C\CC[C@H](C)C[C@@H](C)[C@H](NC(=O)OC(C)(C)C(F)(F)F)C(=O)N4C3)n2)cc1` [Compound 1028, 1,1,1-trifluoro-2-methylpropan-2-yl ((2R,6S,7R,9S,13aS,14aR,16aS,Z)-2-((4-chloro-6-(4-isopropoxyphenyl)pyridin-2-yl)oxy)-7,9-dimethyl-14a-(((1-methylcyclopropyl)sulfonyl)carbamoyl)-5,16-dioxo-1,2,3,5,6,7,8,9,10,11,13a,14,14a,15,16,16a-hexadecahydrocyclopropa[e]pyrrolo[1,2-a][1,4]diazacyclopentadecin-6-yl)carbamate], the concentration giving a half-maximal response (EC50) in the assay with HCV GT1a(H77) replicon and in the assay with HCV GT1b(Con1) replicon was 35 to 359 nM throughout.

On to `CC(C)Oc1ccc(-c2cc(Cl)cc(O[C@@H]3C[C@H]4C(=O)N[C@]5(C(=O)NS(=O)(=O)C6(C)CC6)C[C@H]5/C=C\CC[C@@H](C)C[C@@H](C)[C@H](NC(=O)OC(C)(C)C)C(=O)N4C3)n2)cc1` [Compound 1029, tert-butyl ((2R,6S,7R,9R,13aS,14aR,16aS,Z)-2-((4-chloro-6-(4-isopropoxyphenyl)pyridin-2-yl)oxy)-7,9-dimethyl-14a-(((1-methylcyclopropyl)sulfonyl)carbamoyl)-5,16-dioxo-1,2,3,5,6,7,8,9,10,11,13a,14,14a,15,16,16a-hexadecahydrocyclopropa[e]pyrrolo[1,2-a][1,4]diazacyclopentadecin-6-yl)carbamate], for which the EC50 in the assay with HCV GT1a(H77) replicon and in the assay with HCV GT1b(Con1) replicon was 1.01 to 5 nM in each case.

With `CC(C)Oc1ccc(-c2cc(Cl)cc(O[C@@H]3C[C@H]4C(=O)N[C@]5(C(=O)NS(=O)(=O)C6(C)CC6)C[C@H]5/C=C\CC[C@H](C)C[C@@H](C)[C@H](NC(=O)OC(C)(C)C)C(=O)N4C3)n2)cc1` [Compound 1030, tert-butyl ((2R,6S,7R,9S,13aS,14aR,16aS,Z)-2-((4-chloro-6-(4-isopropoxyphenyl)pyridin-2-yl)oxy)-7,9-dimethyl-14a-(((1-methylcyclopropyl)sulfonyl)carbamoyl)-5,16-dioxo-1,2,3,5,6,7,8,9,10,11,13a,14,14a,15,16,16a-hexadecahydrocyclopropa[e]pyrrolo[1,2-a][1,4]diazacyclopentadecin-6-yl)carbamate], the EC50 in the assay on HCV GT1a(H77) replicon and in the assay with HCV GT1b(Con1) replicon was 35 to 359 nM each time.

As to `C[C@@H]1CC/C=C\[C@@H]2C[C@@]2(C(=O)NS(=O)(=O)C2(C)CC2)NC(=O)[C@@H]2C[C@@H](Oc3cc(-c4nccs4)ccn3)CN2C(=O)[C@@H](NC(=O)OC(C)(C)C(F)(F)F)[C@H](C)C1` [Compound 1031, 1,1,1-trifluoro-2-methylpropan-2-yl ((2R,6S,7R,9R,13aS,14aR,16aS,Z)-7,9-dimethyl-14a-(((1-methylcyclopropyl)sulfonyl)carbamoyl)-5,16-dioxo-2-((4-(thiazol-2-yl)pyridin-2-yl)oxy)-1,2,3,5,6,7,8,9,10,11,13a,14,14a,15,16,16a-hexadecahydrocyclopropa[e]pyrrolo[1,2-a][1,4]diazacyclopentadecin-6-yl)carbamate], the EC50 in the assay on HCV GT1a(H77) replicon lay in the range of 1.01 to 5 nM; with HCV GT1b(Con1) replicon, 0.51 to 1 nM.

As to `C[C@H]1CC/C=C\[C@@H]2C[C@@]2(C(=O)NS(=O)(=O)C2(C)CC2)NC(=O)[C@@H]2C[C@@H](Oc3cc(-c4nccs4)ccn3)CN2C(=O)[C@@H](NC(=O)OC(C)(C)C(F)(F)F)[C@H](C)C1` [Compound 1032, 1,1,1-trifluoro-2-methylpropan-2-yl ((2R,6S,7R,9S,13aS,14aR,16aS,Z)-7,9-dimethyl-14a-(((1-methylcyclopropyl)sulfonyl)carbamoyl)-5,16-dioxo-2-((4-(thiazol-2-yl)pyridin-2-yl)oxy)-1,2,3,5,6,7,8,9,10,11,13a,14,14a,15,16,16a-hexadecahydrocyclopropa[e]pyrrolo[1,2-a][1,4]diazacyclopentadecin-6-yl)carbamate], the EC50 in the assay on HCV GT1a(H77) replicon and in the assay with HCV GT1b(Con1) replicon was 5.01 to 35 nM in each case.

Turning to `CC[C@@H]1O[C@H](C)CC/C=C\[C@@H]2C[C@@]2(C(=O)NS(=O)(=O)C2(C)CC2)NC(=O)[C@@H]2C[C@@H](Oc3cc(-c4ccc(OC(C)C)cc4)nc(-c4cncs4)c3)CN2C(=O)[C@H]1NC(=O)OC(C)(C)C(F)(F)F` [Compound 1033, 1,1,1-trifluoro-2-methylpropan-2-yl ((2R,6S,7S,9R,13aS,14aR,16aS,Z)-7-ethyl-2-((2-(4-isopropoxyphenyl)-6-(thiazol-5-yl)pyridin-4-yl)oxy)-9-methyl-14a-(((1-methylcyclopropyl)sulfonyl)carbamoyl)-5,16-dioxo-2,3,5,6,7,9,10,11,13a,14,14a,15,16,16a-tetradecahydro-1H-cyclopropa[i]pyrrolo[1,2-e][1,5,8]oxadiazacyclopentadecin-6-yl)carbamate], the 50% effective concentration (EC50) was in the range of 1.01 to 5 nM with HCV GT1a(H77) replicon and 0.51 to 1 nM in the assay on HCV GT1b(Con1) replicon.

For the compound `CC[C@@H]1O[C@H](C)CC/C=C\[C@@H]2C[C@@]2(C(=O)NS(=O)(=O)C2(C)CC2)NC(=O)[C@@H]2C[C@@H](Oc3cc(-c4ccc(OC(C)C)cc4)nc(-c4cncs4)c3)CN2C(=O)[C@H]1NC(=O)OC1(C(F)(F)F)CCCOC1` (stereo partly drawn) [Compound 1034, 3-(trifluoromethyl)tetrahydro-2H-pyran-3-yl ((2R,6S,7S,9R,13aS,14aR,16aS,Z)-7-ethyl-2-((2-(4-isopropoxyphenyl)-6-(thiazol-5-yl)pyridin-4-yl)oxy)-9-methyl-14a-(((1-methylcyclopropyl)sulfonyl)carbamoyl)-5,16-dioxo-2,3,5,6,7,9,10,11,13a,14,14a,15,16,16a-tetradecahydro-1H-cyclopropa[i]pyrrolo[1,2-e][1,5,8]oxadiazacyclopentadecin-6-yl)carbamate], the concentration giving a half-maximal response (EC50) was in the range of 1.01 to 5 nM with HCV GT1a(H77) replicon and 0.51 to 1 nM in the assay on HCV GT1b(Con1) replicon.

`CC[C@@H]1O[C@H](C)CC/C=C\[C@@H]2C[C@@]2(C(=O)NS(=O)(=O)C2(C)CC2)NC(=O)[C@@H]2C[C@@H](Oc3cc(-c4ccc(OC(C)C)cc4)nc(-c4nccs4)c3)CN2C(=O)[C@H]1NC(=O)OC1(C(F)(F)F)CCCOC1` (stereo partly drawn) [Compound 1035, 3-(trifluoromethyl)tetrahydro-2H-pyran-3-yl ((2R,6S,7S,9R,13aS,14aR,16aS,Z)-7-ethyl-2-((2-(4-isopropoxyphenyl)-6-(thiazol-2-yl)pyridin-4-yl)oxy)-9-methyl-14a-(((1-methylcyclopropyl)sulfonyl)carbamoyl)-5,16-dioxo-2,3,5,6,7,9,10,11,13a,14,14a,15,16,16a-tetradecahydro-1H-cyclopropa[i]pyrrolo[1,2-e][1,5,8]oxadiazacyclopentadecin-6-yl)carbamate]: the concentration giving a half-maximal response (EC50) with HCV GT1a(H77) replicon and in the assay on HCV GT1b(Con1) replicon was 0.51 to 1 nM each time.

As a reminder, the EC50 is the midpoint of the concentration-response curve.
